This test addresses T1, recombinant human Flag-tagged PARP7 (amino acids 456-657) (Homo sapiens, UniProt Q7Z3E1).
T1 construct: recombinant human Flag-tagged PARP7 (amino acids 456-657)
T1 sequence (Q7Z3E1 456-657): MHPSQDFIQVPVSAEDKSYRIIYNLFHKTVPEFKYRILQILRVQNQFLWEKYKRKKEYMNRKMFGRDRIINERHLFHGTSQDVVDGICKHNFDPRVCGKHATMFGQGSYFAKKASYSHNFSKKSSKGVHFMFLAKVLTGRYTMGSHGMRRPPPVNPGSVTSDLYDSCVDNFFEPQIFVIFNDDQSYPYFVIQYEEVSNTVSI
Description: PARP7 biochemical DELFIA assay (auto-MARylation). The settings on record: DELFIA readout, IC50 class. On the procedure: A suitable assay may be conducted using 10-30 nM PARP7 (amino acids 456-657), 2 μM biotin-NAD assay solution in 20 mM HEPES (pH 7.5), 100 mM NaCl, 2 mM DTT, 0.1% BSA (w/v), 0.02% Tween (v/v) assay buffer. MARylation may take place for 2-3 h at room temperature and may be detected using a dissociation-enhanced lanthanide fluorescence immunoassay (DELFIA) readout. This assay format has been recently utilised for screening for modulators of PARP7 and other MonoPARP enzymes ([…]. et al. Forced Self-Modification Assays as a Strategy to Screen MonoPARP Enzymes. SLAS Discovery. 25; 241-252, (2020)). A particularly suitable assay is described in the Examples below. Optiplate HB 384-well plates were coated with anti-FLAG antibody, supplied as a 4 mg/ml solution, using a Na2CO3/HCO3 coating buffer at pH 9.6, overnight at 4° C., in order to achieve a final immobilisation per well of 0.3 μg. Wells were then washed 3× in coating wash buffer (PBS/0.05% Tween (v/v)), blocked with 2% BSA (w/v) in coating wash buffer and washed 3 further times prior to assay. For the assay 20 μl of 12.5-37.5 nM recombinant human Flag-tagged PARP7 (amino acids 456-657) was added to each well of the 384-well plate for 30 min at room temperature. 50 nl of test compound in DMSO was added using pintool technology and plates were incubated for a further 30 min at room temperature. 5 μl of 15 μM biotin-NAD^+ assay solution in 20 mM HEPES (pH 7.5), 100 mM NaCl, 2 mM DTT, 0.1% BSA (w/v), 0.02% Tween (v/v) assay buffer was then added and MARylation proceeded for 2-3 h at room temperature prior to the addition of 5 μl of 12 mM NAD^+ quenching solution. After 30 min at room temperature, assay solution was removed and following washing 5 times, 100 μl of a 1:1000 dilution of DELFIA Eu-N1 Streptavidin reagent was added. Plates were then incubated for 30 min at room temperature. Reaction mixture was removed and plates washed 5 times prior to the addition of 25 μl DELFIA enhancement solution. Following incubation for 30 min at room temperature, fluorescence was read on either an Envision or Pherastar FS (Ex337 nm, Em620 nm).

For 20 molecules, IC50 results are on record in patent publication US20240217968A1, “PHARMACEUTICAL COMPOUND” (DUKE STREET BIO LIMITED, priority 2021, published 2024).

A value given as a limit tells only on which side of the number the result lay.

Regarding `CC(COCCC(=O)N1CCN(c2ccc(OC(F)(F)F)cn2)CC1)n1nc(C(F)(F)F)c2c(=O)[nH]ncc21` (single isomer, unassigned) [Compound 253], the IC50 is ≤ 100 nM.
The same measure for `CC(COCCC(=O)N1CCN(c2ccc(OC(F)(F)F)cn2)CC1)n1nc(C(F)(F)F)c2c(=O)[nH]ncc21` (single isomer, unassigned) [Compound 254]: ≤ 100 nM.
In the case of `Cc1nn(CCOCCC(=O)N2CCN(c3ncc(C(F)(F)F)cn3)C(C)C2)c2cn[nH]c(=O)c12` (single isomer, unassigned) [Compound 255], the IC50 is ≤ 100 nM.
`CC(COCCC(=O)N1CCN(c2ncc(C(F)(F)F)s2)CC1)n1nc(C(F)(F)F)c2c(=O)[nH]ncc21` (single isomer, unassigned) [Compound 258]: the IC50 was ≤ 100 nM.
The same measure for `Cc1nn(C(C)COCCC(=O)N2CCN(c3ncc(C#N)cn3)CC2)c2cn[nH]c(=O)c12` (single isomer, unassigned) [Compound 262]: ≤ 100 nM; for `Cc1nn(C(C)COCCC(=O)N2CCN(c3ncc(C#N)cn3)CC2)c2cn[nH]c(=O)c12` (single isomer, unassigned) [Compound 263]: ≤ 100 nM.
The same measure for `CC(COCCC(=O)N1CCN(c2cnc(C(F)(F)F)cn2)CC1)n1nc(C(F)(F)F)c2c(=O)[nH]ncc21` (single isomer, unassigned) [Compound 266]: ≤ 100 nM; for `CC(COCCC(=O)N1CCN(c2ccc(C#N)cn2)CC1)n1nc(C(F)(F)F)c2c(=O)[nH]ncc21` (single isomer, unassigned) [Compound 270]: ≤ 100 nM; for `CC(COCCC(=O)N1CCN(c2ccc(OC(F)F)cn2)CC1)n1nc(C(F)(F)F)c2c(=O)[nH]ncc21` (single isomer, unassigned) [Compound 274]: ≤ 100 nM.
Take `CC(COCCC(=O)N1CCN(c2ccc(C3CC3)cn2)CC1)n1nc(C(F)(F)F)c2c(=O)[nH]ncc21` (single isomer, unassigned) [Compound 279]: the concentration for half-maximal inhibition (IC50) was ≤ 100 nM.
The same measure for `CC(COCCC(=O)N1CCN(c2ncc(C3CC3)cn2)CC1)n1nc(C(F)(F)F)c2c(=O)[nH]ncc21` (single isomer, unassigned) [Compound 280]: ≤ 100 nM; for `CC(COCCC(=O)N1CCN(c2ncc(C3CC3)cn2)CC1)n1nc(C(F)(F)F)c2c(=O)[nH]ncc21` (single isomer, unassigned) [Compound 281]: ≤ 100 nM; for `CC(COCCC(=O)N1CCN(c2ncc(C#N)s2)CC1)n1nc(C(F)(F)F)c2c(=O)[nH]ncc21` (single isomer, unassigned) [Compound 284]: ≤ 100 nM.
The same measure for `CC(COCCC(=O)N1CCN(c2ncc(C3COC3)cn2)CC1)n1nc(C(F)(F)F)c2c(=O)[nH]ncc21` (single isomer, unassigned) [Compound 289]: ≤ 100 nM; for `CC(COCCC(=O)N1CCN(c2nnc(C(F)(F)F)s2)CC1)n1nc(C(F)(F)F)c2c(=O)[nH]ncc21` (single isomer, unassigned) [Compound 291]: 100 to 1000 nM; for `CC(COCCC(=O)N1CCN(c2ncc(OC(F)F)cn2)CC1)n1nc(C(F)(F)F)c2c(=O)[nH]ncc21` (single isomer, unassigned) [Compound 294]: ≤ 100 nM.
With `CNC(=O)c1ccc(N2CCN(C(=O)CCOCC(C)n3nc(C(F)(F)F)c4c(=O)[nH]ncc43)CC2)nc1` (single isomer, unassigned) [Compound 305] the figure was ≤ 100 nM; with `COc1ccc(N2CCN(C(=O)CCOCC(C)n3nc(C(F)(F)F)c4c(=O)[nH]ncc43)CC2)nc1` (single isomer, unassigned) [Compound 306], ≤ 100 nM; with `CC(COCCC(=O)N1CCN(c2ccc(C3COC3)cn2)CC1)n1nc(C(F)(F)F)c2c(=O)[nH]ncc21` (single isomer, unassigned) [Compound 310], ≤ 100 nM.
Consider `CC(COCCC(=O)N1CCN(c2ccc(C3COC3)cn2)CC1)n1nc(C(F)(F)F)c2c(=O)[nH]ncc21` (single isomer, unassigned) [Compound 311], for which the 50% inhibitory concentration (IC50) lay in the range of 100 to 1000 nM.

For orientation: IC50 means the point on the concentration scale where inhibition reaches its midpoint.
